Laboratory results from US8063225B2, “Tricyclic compound derivatives useful in the treatment of neoplastic diseases, inflammatory disorders and immunomodulatory disorders” (Chembridge Corporation, priority 2006, dated 2011).

Legend:
Jak2 = target: T1, Jak2 (Homo sapiens, UniProt O60674); assay: Tyrosine kinase assay (Kinase-Glo or AlphaScreen), Jak2; conditions: biochemical tyrosine kinase assay
T1 construct: 6×His- or GST-tagged kinase domain fragments of the corresponding RTKs expressed in baculovirus system; host or cells: baculovirus system
T1 sequence (O60674 849-1124 limits assumed, species assumed): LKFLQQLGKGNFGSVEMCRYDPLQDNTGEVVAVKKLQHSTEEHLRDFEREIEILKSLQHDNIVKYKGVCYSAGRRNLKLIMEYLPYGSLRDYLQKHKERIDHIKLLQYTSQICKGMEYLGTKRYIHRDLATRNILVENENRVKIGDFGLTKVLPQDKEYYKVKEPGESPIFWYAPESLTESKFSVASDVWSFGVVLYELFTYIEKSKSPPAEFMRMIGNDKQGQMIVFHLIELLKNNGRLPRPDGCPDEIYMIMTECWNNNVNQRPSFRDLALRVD
Method in brief: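 Phosphorylation of poly(Glu-Tyr) by baculovirus-made kinase domains, 10 μM ATP, measured either as ATP depletion (Kinase-Glo, 37° C, 1 h) or phosphotyrosine AlphaScreen (room temperature, 30 min plus 60 min with beads).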

IGF1 receptor = target: T2, IGF1 receptor (Homo sapiens, UniProt P08069); assay: ELISA-based assay of IGF1 receptor autophosphorylation inhibition in cells; assay type: cell-based; conditions: IGF1R phosphorylation inhibition in MCF7 cells
T2 construct: MCF7 human breast cancer cells expressing IGF1 receptor; endogenous in cells; host or cells: MCF7 human breast cancer cells
T2 sequence (P08069 741-1367 limits assumed): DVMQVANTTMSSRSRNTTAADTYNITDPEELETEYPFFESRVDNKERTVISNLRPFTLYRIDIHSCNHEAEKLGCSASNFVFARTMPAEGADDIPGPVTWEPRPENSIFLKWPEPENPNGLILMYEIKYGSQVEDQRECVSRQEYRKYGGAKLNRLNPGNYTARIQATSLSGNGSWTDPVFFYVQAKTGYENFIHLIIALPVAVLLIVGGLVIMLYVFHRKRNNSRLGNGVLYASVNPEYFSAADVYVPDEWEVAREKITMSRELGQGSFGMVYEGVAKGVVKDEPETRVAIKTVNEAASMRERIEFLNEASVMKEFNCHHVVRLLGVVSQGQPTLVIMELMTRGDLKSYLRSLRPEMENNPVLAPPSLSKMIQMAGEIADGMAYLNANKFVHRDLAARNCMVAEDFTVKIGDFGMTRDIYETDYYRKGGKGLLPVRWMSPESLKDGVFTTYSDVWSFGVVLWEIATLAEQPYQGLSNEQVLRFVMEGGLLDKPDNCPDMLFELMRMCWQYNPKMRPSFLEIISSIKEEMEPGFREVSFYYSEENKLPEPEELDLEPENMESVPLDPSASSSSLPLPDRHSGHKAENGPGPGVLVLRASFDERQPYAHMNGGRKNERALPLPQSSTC
T2 sequence (P08069 31-736 partner limits assumed): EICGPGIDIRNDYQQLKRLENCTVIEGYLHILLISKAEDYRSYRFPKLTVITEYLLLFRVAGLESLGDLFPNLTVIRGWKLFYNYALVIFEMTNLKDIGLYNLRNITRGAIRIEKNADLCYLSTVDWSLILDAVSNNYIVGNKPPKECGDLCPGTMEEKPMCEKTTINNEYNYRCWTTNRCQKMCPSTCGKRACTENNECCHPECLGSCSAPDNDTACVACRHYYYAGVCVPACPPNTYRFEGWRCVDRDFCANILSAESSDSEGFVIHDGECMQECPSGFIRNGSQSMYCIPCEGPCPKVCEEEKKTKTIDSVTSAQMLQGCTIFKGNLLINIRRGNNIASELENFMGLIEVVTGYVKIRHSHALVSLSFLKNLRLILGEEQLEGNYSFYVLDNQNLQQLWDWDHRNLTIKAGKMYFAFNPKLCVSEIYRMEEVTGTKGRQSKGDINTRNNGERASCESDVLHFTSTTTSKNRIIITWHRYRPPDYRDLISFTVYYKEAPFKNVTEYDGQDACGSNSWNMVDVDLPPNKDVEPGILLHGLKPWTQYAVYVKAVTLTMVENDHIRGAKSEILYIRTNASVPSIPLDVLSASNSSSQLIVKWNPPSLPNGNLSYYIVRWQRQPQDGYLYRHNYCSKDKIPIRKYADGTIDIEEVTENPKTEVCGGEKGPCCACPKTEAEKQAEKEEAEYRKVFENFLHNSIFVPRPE
Method in brief: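 MCF7 cells or NIH 3T3 overexpressing full-length IGF1R, serum-starved overnight, treated with inhibitor 1 h at 37 °C (1% DMSO), then stimulated 10 min with 100 nM IGF-1. Lysates captured on anti-IGF1R-coated plates; receptor phosphotyrosine detected with 4G10-HRP and TMB, absorbance 450 nm.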

Row | Structure (SMILES) | IC50 (Jak2) | IC50 (IGF1 receptor)
1 | Cc1ccc(OC[C@H](O)CNc2cc[nH]c(=O)c2-c2nc3c(C)c4c(cc3[nH]2)CN(C2CCN(C)CC2)C4=O)c(C)c1 [compound 140] | < 0.5 µM | 0.5 to 5 µM
2 | COc1cccc(OCC(O)CNc2cc[nH]c(=O)c2-c2nc3cc4c(cc3[nH]2)C(=O)N(C2CCN(C)CC2)C4=O)c1 (centres unmarked) [compound 6] | 0.5 to 5 µM | 0.5 to 5 µM
3 | Cc1ccc(OC[C@H](O)CNc2cc[nH]c(=O)c2-c2nc3cc4c(cc3[nH]2)C(=O)N(C2CCN(C)CC2)C4=O)c(C)c1 [compound 59] | 0.5 to 5 µM | 0.5 to 5 µM
4 | Cc1cc(C)c(OC[C@H](O)CNc2cc[nH]c(=O)c2-c2nc3cc4c(cc3[nH]2)C(=O)N(C2CCN(C)CC2)C4=O)cc1Cl [compound 108] | 0.5 to 5 µM | 5 to 15 µM
